Tests used:
[1] = system: mixed spleen lymphocytes (BALB/c and C57BL/6); assay: Mixed lymphocyte reaction, 3H-thymidine uptake; format: cell-based, mouse; details: 1 μM
Procedure: (2) Spleens were taken out from a BALB/c mouse (male, 6 weeks old, purchased from Japan SLC) and a C57BL/6 mouse (male, 6 weeks old, purchased from Japan SLC) and spleen lymphocytes were obtained according to the method as described in Example 11-(1). The concentration of each of the cell suspensions was adjusted to 2×10^6 cell/ml, 100 μl portions from respective suspensions were mixed together and seeded into a 96-well microtiter plate. Dipropionylcyclopentenone at a varying concentration was added to the wells other than the control well, and the plate was incubated at 37° C. for 4 days in a CO2 incubator. After incubation, 1 μCi of ^3H-thymidine was added to each well, and the plate was incubated for additional 1 day. The uptake into cells was measured using a liquid scintillation counter.
FIG. 8 illustrates the relationship between the concentration of dipropionylcyclopentenone and the amount of ^3H-thymidine uptake. The horizontal axis represents the dipropionylcyclopentenone concentration (μM) and the vertical axis represents ^3H-thymidine uptake (CPM). The open bar represents the ^3H-thymidine uptake when cells from one of the lines were used independently. The shaded bar represents the ^3H-thymidine uptake when cells from both of the lines were mixed together.

[2] = Single oral dose toxicity; format: in vivo; details: mouse, oral, single dosage of 100 mg/kg
Procedure: No toxicity is observed when a physiologically effective amount of the cyclopentenone derivative or an optical isomer thereof, or a salt thereof obtained according to the present invention is administered.

CCC(=O)OC1C=CC(=O)C1OC(=O)CC (centres unmarked)
Inhibition of mixed lymphocyte reaction (FIG. 8) [1]: almost completely inhibited | Death after single oral administration [2]: no death was observed

Reference: patent publication US6548543B1, “Remedies or preventives containing cyclopentenone compounds as the active ingredient” (Takara Shuzo Co., Ltd., priority 1998, dated 2003)
